Reference: US20250144049A1, “METHODS, COMPOSITIONS, AND USES RELATED TO THE TREATMENT AND PREVENTION OF LEIGH SYNDROME” (Stealth BioTherapeutics Inc., priority 2023, published 2025)

Key:
[1] = system: Healthy (GM08402) fibroblasts; experiment: RSL3 cytoprotection assay, healthy fibroblasts; assay type: cell-based, human; conditions: 1 μM RSL3, 4 hours, FIG. 8
Protocol: (§1) Patient fibroblasts were acquired from Coriell Institute for Medical Research (Camden, NJ, USA). GM03672 is an untransformed fibroblast cell line from a Leigh syndrome patient carrying an unknown mutation. GM08402 is an untransformed fibroblast from an apparently healthy individual. Cells were cultured at 37° C. at 5% CO2 in Eagle's Minimum Essential Medium (MEM, Corning), which was supplemented with Earle's salts and non-essential amino acids, 15% qualified fetal bovine serum, and 1% penicillin/streptomycin ([…]) to yield “Complete MEM.”
(§2) To initiate the RSL3 cytoprotection experiment, Healthy (GM08402) and Leigh syndrome (GM03672) fibroblasts were resuspended in Complete MEM. Cells were seeded at 10,000 cells per well in a clear, tissue cultured-treated, 96-well plate and incubated at 37° C. overnight. Following the incubation, supernatant was manually aspirated, taking care not to disrupt cells. […]. Luminescence units were quantified by GEN5 software on a BioTek SYNERGY neo2 plate reader (LUM filter).
(§3) RSL3 is an inhibitor of the enzyme glutathione peroxidase 4 (GPX4), which decreases lipid peroxides. RSL3 inhibition of GPX4 induces ferroptosis through iron-dependent accumulation of lipid ROS. In this assay, Healthy or Leigh fibroblasts were treated for 4 hours with RSL3 to induce ferroptosis or left untreated. Endogenous ATP levels were measured as an indicator of cellular viability using a commercially available kit (CellTiter-Glo® 2.0 Cell Viability Assay (Promega)).
(§4) […]. […] Briefly, ferroptosis was induced with 1 μM RSL3 in healthy fibroblast cells and 375 nM RSL3 in fibroblasts from a patient with Leigh syndrome.
(§5) A preliminary experiment was performed to determine the effect of RSL3 injury on the fibroblasts of a healthy individual (cell line: GM08402) and the fibroblasts of a patient diagnosed with Leigh syndrome (cell line: GM03672).

[2] = system: Leigh syndrome (GM03672) fibroblasts; experiment: RSL3 cytoprotection assay, Leigh fibroblasts; assay type: cell-based, human; conditions: RSL3, 4 hours, FIG. 9
Protocol: as §1, §2, §3, §4, §5

15-lipoxygenase (15-LO) = experiment: 15(S)-HETE ELISA following RSL3 treatment, healthy fibroblasts; assay type: cell-based, human; conditions: 700 nM RSL3, 1 μM compound, FIG. 10; for inhibition of 15-lipoxygenase (15(S)-HETE in supernatant): 24 hours
Protocol: Samples for the 15(S)-HETE ELISA were generated by the RSL3 cytoprotection assay described above. Healthy or Leigh fibroblasts were resuspended in assay medium, seeded at 200,000 cells per well in a clear, tissue culture-treated, 24-well plate. Cells were incubated at 37° C. for 24 hours. Supernatant was aspirated from each well following the incubation.
Fibroblasts from both a healthy individual and a patient diagnosed with Leigh syndrome were examined (but not all compounds were examined in each cell type). Activation of ferroptosis has been implicated as a driver of epilepsy, which is commonly associated with Leigh syndrome. […] Kahn-Kirby et al. PLOS One. […] As a key regulator of ferroptosis, 15-LO serves as a rational therapeutic target in Leigh syndrome.

[3] = Pharmacokinetics of Compound 3 and Compound 4 after five daily subcutaneous doses, plasma, heart, brain; assay type: in vivo, C57BL/6 mice; conditions: for tolerability: dose levels up to 60 mg/kg, SC injection, 5 daily doses
Protocol: • Animals: Male/C57Bl/6 mice/-18-25 grams were received from an approved vendor. • Fasting was not required for this study. • Body weights were recorded prior to dose administration. The volume of each dose delivered (mL/kg) was based on each individual animal's body weight. • This was a multiple dose terminal study dosed once per day over 5 days. Mice were taken down following their 5th and final dose. • Doses were administered in accordance with test facility standard operating procedures. […] Any abnormalities were recorded. • Pre-formulated Compound 3 and Compound 4 were provided by Study sponsor ready to be dosed for each day in accordance with the Study Design set forth in Table 1, below.
b) Sample collection—Post Dosing: • Terminal blood samples were collected via cardiac puncture following inhalation of anesthesia in accordance with test facility standard operating procedures. • Blood samples were collected into tubes with appropriate anticoagulant. The tubes were stored on wet ice until processed to plasma by centrifugation (3500 rpm at 5° C. for 10 minutes) within 20 minutes of collection. Sample aliquots of 100 μL were transferred into individual uniquely labeled matrix tubes and stored at nominal −80° C. until transferred to analytical chemistry for analysis by LC/MS/MS. • Immediately following each terminal blood collection for all groups, animals were sacrificed and perfused with cold PBS. The following tissues were collected: heart and brain in accordance with Table 2. • Plasma and tissue samples were processed for analysis by LC/MS/MS to determine the amounts/concentrations reported in the FIGS. 18-21.

[4] = system: Leigh fibroblasts (GM03672); experiment: Mitochondrial membrane potential (TMRM flow cytometry) in RSL3-treated Leigh fibroblasts; assay type: cell-based, human; conditions: 1 μM RSL3 with 1 μM compound, 4 hours
Protocol: Leigh fibroblasts (GM03672) were seeded in a 24-well, tissue culture-treated plate in complete MEM (MEM+15% FBS+1% penicillin/streptomycin) at a density of 1×10^5 cells per 500 μL and incubated overnight at 37° C. at 5% CO2. Cells were treated for 4 hours at 37° C. with either 1 μM RSL3, 1 μM RSL3 with 1 μM Compound 3 or media for untreated cells. Following the incubation, supernatant was removed and cells were treated with 0.25% trypsin for 5 min at 37° C. Trypsin was neutralized with an equal part MEM. Cells were dislodged with gentle pipetting and pelleted at 300×g for 5 minutes. Pellets were resuspended in 500 μL Fluobrite DMEM and cells were transferred to a 96-well, v-bottom plate. Cells were stained with 20 nM MitoTracker Green and 100 nM tetramethylrhodamine methyl ester (TMRM) Samples were incubated for 25 minutes at 37° C. Each well was mixed immediately prior to analysis to resuspend settled cells. Fluorescence intensity was measured on the BD Accuri C6 Plus Flow Cytometer. A minimum of 10,000 events per sample was collected. Data analysis was performed using FloJo vs. 10. Gating was performed by establishing an initial forward scatter vs. side scatter gate. […] Median fluorescence intensity (MFI) of TMRM fluorescence was determined. Using GraphPad Prism 10, statistical significance between groups was determined by One-way ANOVA. […]

Row | Compound | anti-ferroptosis properties compared among test articles [1] | anti-ferroptosis properties compared among test articles [2] | inhibition of 15-lipoxygenase (15(S)-HETE in supernatant) (15-lipoxygenase (15-LO)) | 15-lipoxygenase inhibition compared among test articles (15-lipoxygenase (15-LO)) | plasma exposure versus dose ([3]; mouse, 20 mg/kg and 60 mg/kg SC) | heart exposure based on AUC, Compound 3 versus Compound 4 ([3]; mouse, SC) | exposure (Cmax and AUC) heart versus brain ([3]; mouse, SC, after 5th dose) | tolerability ([3]; mouse) | concentration in heart tissue ([3]; mouse, up to 2 hours post administration after 5 days, Compound 3 20 and 60 mg/kg, Compound 4 60 mg/kg SC, FIG. 18) | concentration in brain tissue ([3]; mouse, up to 2 hours post administration after 5 days, Compound 3 20 and 60 mg/kg, Compound 4 60 mg/kg SC, FIG. 19) | protection from loss of mitochondrial membrane potential (TMRM MFI) [4] | brain exposure based on AUC, Compound 4 versus Compound 3 ([3]; male, C57BL/6, mouse, in vivo, sc) | Tmax, Compound 4 versus Compound 3 ([3]; mouse, in vivo, sc) | exposure (Cmax and AUC) heart versus brain ([3]; mouse, in vivo, sc) | half-life, Compound 4 versus Compound 3 ([3]; mouse, in vivo, sc)
1 | CC1=C(C)C(=O)C(CC[C@@](C)(O)COCCC[Si](C)(C)C)=C(C)C1=O [Compound 3] | superior to Compounds 1, 4 and Vatiquinone | superior to Compounds 1, 4 and Vatiquinone | inhibited 15-lipoxygenase | superior to Compounds 2, 4 and Vatiquinone | roughly proportional to dose | slightly higher | higher in heart than in brain | well tolerated | up to microgram quantities of drug per gram of heart tissue | up to microgram quantities of drug per gram of brain tissue | protective | – | – | – | –
2 | CC1=C(C)C(=O)C(CC[C@](C)(O)CCCCCCCCC(F)(F)F)=C(C)C1=O [Compound 4] | roughly equivalent | roughly equivalent | inhibited 15-lipoxygenase | roughly equivalent protective effect | – | – | – | well tolerated | – | – | protective | somewhat higher than Compound 3 | typically later | no difference | tended to be longer
